According to article PMC9571594, “Development of Semisynthetic Apoptosis-Inducing Agents Based on Natural Phenolic Acids Scaffold: Design, Synthesis and In-Vitro Biological Evaluation” (Molecules, 2022):
Where two headings read alike, the source gives them in different places.

Columns and labels:
PANC-1 cells = assay: MTT cell viability assay, PANC-1; format: cell-based, human; conditions: for IC50 / viability at 15.625 µg/mL / viability at 31.25 µg/mL / viability at 62.5 µg/mL / viability at 125 µg/mL / viability at 250 µg/mL / viability at 500 µg/mL: Homo sapiens, PANC-1
Protocol: (§1) MCF-7 cells (Human breast adenocarcinoma), HepG2 (human hepatocellular carcinoma), A549 (human lung adenocarcinoma), Caco-2 (colon carcinoma), PANC-1 (human pancreatic cancer), and Vero cells (derived from normal kidney cells) were supplied by (Holding Company for Biological Products and Vaccines VACSERA; Giza, Egypt). The cells were cultured in PRMI 1640 medium (Lonza, Switzerland) supplemented with 10% fetal bovine serum (Gibco), 1% penicillin and 1% streptomycin (Sigma Aldrich, Saint Louis, MO, USA) at 37 °C under an atmosphere of 5% CO2 and 95% air.
(§2) The effect of parent compounds and their derivatives were assessed by (3-(4,5-dimethylthiazol-2-yl)-2,5diphenyl-tetrazolium bromide) MTT assay. […] After a merged sheet of cells developed, the growth media was decanted from the 96-well microtiter and refilled with different concentrations of compounds (µg/mL), and the plate was incubated at 37 °C for 48 h to minimize exposure to the dissolving agent (Supporting Information).
(§3) MTT solution (BIO BASIC CANADA INC) was prepared [5 mg/mL in phosphate buffered saline (PBS)], added to each well and incubated for 4 h, then after removing the media, 200 μL of DMSO was added to each well to solubilize the formazan crystals and the optical density of the formazan product was measured at 560 nm using microplate reader (mindray, MR-96A). The results were calculated as the mean of the three independent experiments. […]
(§4) Determination of sample cytotoxicity on cells (MTT protocol) […]
(§5) well) and incubated at 37°C for 24 hours to develop a complete monolayer sheet.
(§6) 2- Growth medium was decanted from 96 well micro titer plates after confluent sheet of cells were formed, cell monolayer was washed twice with wash media.
(§7) 3- two-fold dilutions of tested sample was made in RPMI medium with 2% serum […]
(§8) 4- 0.1 ml of each dilution was tested in different wells leaving 3 wells as control, receiving only maintenance medium.
(§9) 5- Plate was incubated at 37°C and examined. Cells were checked for any physical signs of toxicity, e.g. partial or complete loss of the monolayer, rounding, shrinkage, […]
(§10) 6- MTT solution was prepared (5mg/ml in PBS) (BIO BASIC CANADA INC).
(§11) 8- 20ul MTT solution were added to each well. Place on a shaking table, 150rpm for 5 minutes, to thoroughly mix the MTT into the media.
(§12) 10) Dump off the media. (dry plate on paper towels to remove residue if necessary. […] 9 ش - ايلعلا هبضهلا - مطقملا / ىسيئرلا لمعملا […]

Caco-2 cancer cell line = assay: MTT cell viability assay, Caco-2; format: cell-based; conditions: for viability at 15.625 µg/mL / viability at 31.25 µg/mL / viability at 62.5 µg/mL / viability at 125 µg/mL / viability at 250 µg/mL / viability at 500 µg/mL / IC50: Homo sapiens, Caco-2
Protocol: as §1, §2, §3, §4, §5, §6, §7, §8, §9, §10, §11, §12

Caco-2 cells = assay: Annexin V-FITC/PI apoptosis assay by flow cytometry; format: cell-based; parameters: key: % of cells; conditions: annexin-V FITC/PI staining, 24h
Protocol: In order to determine the percentage of viable, apoptotic and necrotic cells after treatment with our compounds, double-staining with fluorescein isothiocyanate (FITC) and PI was performed. Annexin V-FITC Apoptosis Detection Kit (BioVision, CA, USA) was used. Briefly, cultured Caco-2 were treated with the tested compounds or DMSO for 24h. Cells were then collected by centrifugation at 2000 rpm for 5 min, and the pellet was washed with PBS then centrifuged again at 2000 rpm for 5 min then resuspended in 500μL of the kit’s binding buffer before adding the Annexin V-FITC and PI. The cells were then incubated at room temperature in the dark for 5 min. Annexin V-FITC binding was measured using FACS Calibur flow cytometer (BD biosciences, USA) (Ex = 488 nm, Em = 533 nm, FL1 filter for annexin and FL2 filter for PI).

[1] = Panc1, MTT report T-4-019-5, Conc. ug/ml, read-out: IC50
[2] = Caco2, MTT report T-4-019-5, Conc. ug/ml, read-out: IC50
[3] = MTT, 48 h, average of triplicates, parent compounds and doxorubicin (Table 2), read-out: IC50 (μM) ± SD Caco-2

Structure (SMILES)	viability at 15.625 µg/mL (PANC-1 cells; Panc1, 15.625 ug/ml)	viability at 31.25 µg/mL (PANC-1 cells; Panc1, 31.25 ug/ml)	viability at 62.5 µg/mL (PANC-1 cells; Panc1, 62.5 ug/ml)	viability at 125 µg/mL (PANC-1 cells; Panc1, 125 ug/ml)	viability at 250 µg/mL (PANC-1 cells; Panc1, 250 ug/ml)	viability at 500 µg/mL (PANC-1 cells; Panc1, 500 ug/ml)	IC50 (PANC-1 cells; [1])	Toxicity % (PANC-1 cells; Panc1, 15.625 ug/ml)	Toxicity % (PANC-1 cells; Panc1, 31.25 ug/ml)	Toxicity % (PANC-1 cells; Panc1, 62.5 ug/ml)	Toxicity % (PANC-1 cells; Panc1, 125 ug/ml)	Toxicity % (PANC-1 cells; Panc1, 250 ug/ml)	Toxicity % (PANC-1 cells; Panc1, 500 ug/ml)	Toxicity % (Caco-2 cancer cell line; Caco2, 15.625 ug/ml)	Toxicity % (Caco-2 cancer cell line; Caco2, 31.25 ug/ml)	Toxicity % (Caco-2 cancer cell line; Caco2, 62.5 ug/ml)	Toxicity % (Caco-2 cancer cell line; Caco2, 125 ug/ml)	Toxicity % (Caco-2 cancer cell line; Caco2, 250 ug/ml)	Toxicity % (Caco-2 cancer cell line; Caco2, 500 ug/ml)	viability at 15.625 µg/mL (Caco-2 cancer cell line; Caco2, 15.625 ug/ml)	other results
O=C(O)/C=C/c1ccc(O)c(O)c1 [Compound 1, Caffeic acid]	100%	101%	99.8%	91.8%	48.3%	29.7%	251 µg/mL	0%	0%	0.1812%	8.243%	51.72%	70.29%	0.09606%	10.47%	52.83%	74.26%	79.92%	88.09%	99.9%	IC50 (PANC-1 cells; MTT, 48 h, average of triplicates, read-out: IC50 (μM) ± SD PANC-1): 1290 µM; viability at 31.25 µg/mL (Caco-2 cancer cell line; Caco2, 31.25 ug/ml): 89.5%; viability at 62.5 µg/mL (Caco-2 cancer cell line; Caco2, 62.5 ug/ml): 47.2%; viability at 125 µg/mL (Caco-2 cancer cell line; Caco2, 125 ug/ml): 25.7%; viability at 250 µg/mL (Caco-2 cancer cell line; Caco2, 250 ug/ml): 20.1%; viability at 500 µg/mL (Caco-2 cancer cell line; Caco2, 500 ug/ml): 11.9%; IC50 (Caco-2 cancer cell line; [2]): 81.2 µg/mL; IC50 (Caco-2 cancer cell line; [3]): 410 µM; Apoptosis Total (Caco-2 cells): 11.31; Early Apoptosis (Caco-2 cells): 3.41; Late Apoptosis (Caco-2 cells): 5.98; Necrosis (Caco-2 cells): 1.92
COc1cc(/C=C/C(=O)O)ccc1O [Compound 2, Ferulic acid]	100%	99.7%	100%	86.5%	24.9%	28.5%	195 µg/mL	0%	0.2717%	0%	13.5%	75.09%	71.47%	0.2882%	9.414%	22.57%	70.61%	88.18%	84.34%	99.7%	viability at 31.25 µg/mL (Caco-2 cancer cell line; Caco2, 31.25 ug/ml): 90.6%; viability at 62.5 µg/mL (Caco-2 cancer cell line; Caco2, 62.5 ug/ml): 77.4%; viability at 125 µg/mL (Caco-2 cancer cell line; Caco2, 125 ug/ml): 29.4%; viability at 250 µg/mL (Caco-2 cancer cell line; Caco2, 250 ug/ml): 11.8%; viability at 500 µg/mL (Caco-2 cancer cell line; Caco2, 500 ug/ml): 15.7%; IC50 (Caco-2 cancer cell line; [2]): 96.4 µg/mL; IC50 (Caco-2 cancer cell line; [3]): 410 µM; Apoptosis Total (Caco-2 cells): 13.22; Early Apoptosis (Caco-2 cells): 5.17; Late Apoptosis (Caco-2 cells): 6.48; Necrosis (Caco-2 cells): 1.57
